“Also recorded” adds a separate entry of the source.

One assay concerns CHO cells. The assay is described as follows: Oregon Green 488-Taxol localization in CHO cells. It counts as cell-based, Chinese hamster. To be noted: 0.5 μM Compound 1. As to the method: A fluorescent compound, Oregon Green 488-Taxol (Molecular Probes/Invitrogen), was utilized to determine the distribution of Taxol in CHO cells (FIG. 33). In addition, the targeting of fluorescent Taxol to centrosomes was examined in Compound 1-treated cells (FIG. 34). Non-transfected wild-type CHO cells and HeLa cells were cultured in 2-well chambered cover-slips for 24-48 hours before treatment. Oregon Green 488-Taxol stock solution was made with DMSO. […] Oregon Green 488-Taxol fluorescence in living cells or fixed cells was imaged using a standard filter for FITC with the Nikon TE300 microscope/digital imaging system.

The next assay has as its system MCF-7 cells. The experiment in a line: α-tubulin-YFP localization in MCF-7 cells. It counts as cell-based. Conditions: 40 hours after treatment with 500 nM for 25 hours. The source says: MDA-435, MCF-7, CV-1, HT-29 and MCF-10A cell lines were maintained with 10% FBS-containing DMEM media. […] Living cells were examined using a fluorescent microscope for α-tubulin-YFP expression. Cells in single colonies that had microtubules labeled with tubulin-YFP were lifted and expanded using G418-containing media.

The subject of assay [1] is CV-1 cells. The assay is described as follows: Actin (phalloidin) fluorescence in CV-1 cells. It counts as cell-based, monkey. Conditions: 0.5 μM, 6 hours. Here is the method: CV-1 cells were obtained from ATCC and grown in chamber slides (Labtek, Campbell, Calif.) for 24 hours in 90% Eagle's MEM with 10% BCS before treatment. […] Cells were then washed in PBS and fixed in 3.7% formaldehyde solution in PBS for 10 minutes at room temperature. Cells were washed again twice in PBS for 5 minutes before incubation with AlexaFluoR488 conjugated phalloidin (1:40 dilution; Molecular Probes, Eugene, Oreg.) and 1% bovine serum albumin (BSA) in PBS at 37° C. for 30 minutes.

For assay [2], the system named is CV-1 cells. The experiment in a line: α-tubulin immunofluorescence, microtubule network in CV-1 cells. It counts as cell-based, monkey. Conditions: 0.5 μM, 5 hours. As to the method: Before treatment, cells were grown in chamber slides for 24 hours in culture media containing 90% Eagle's MEM and 10% BCS. […] Cells were then washed in PBS and fixed in ice-cold 50/50 methanol/acetone for 10 minutes. […] Sigma, St. Louis, Mo.). Subsequently, slides were washed in PBS, incubated with an AlexaFluoR488-conjugated anti-mouse antibody (Molecular Probes, Eugene, Oreg.) at 37° C. for 30 minutes.

As for `CN(NC(=O)CC(=O)NN(C)C(=S)c1ccccc1)C(=S)c1ccccc1` [Compound 1], the “effect on the accumulation of Taxol (Oregon Green 488-Taxol) at centrosomes” value with CHO cells is “no effect on the accumulation of Taxol at centrosomes”. Besides, the “accumulation of α-tubulin-YFP at centrosome-like structures” value in the assay on MCF-7 cells was “accumulation of α-tubulin-YFP at centrosome-like structures”. Moreover, in the assay on CV-1 cells [1], the “organization of the actin network” value is on record as “dramatic alterations in the cells' actin cytoskeletal networks; also recorded: induced the disappearance of cytosolic actin bundles”. For the same compound, the “organization of the microtubule network” value with CV-1 cells [2] was “dramatic alterations in the cells' microtubule network; also recorded: loss of centrosomal enucleated microtubules, clearing up of microtubules from the cytosol, and coiling up of microtubules around the nucleus and at the cell periphery; also recorded: disruption of the microtubule network”.

These data come from patent publication US20060167106A1, “Compounds acting at the centrosome” (priority 2004, published 2006).
